Reference: ChEMBL document CHEMBL1145374, “Discovery of para-alkylthiophenoxyacetic acids as a novel series of potent and selective PPARdelta agonists” (Bioorg Med Chem Lett, 2007)

Legend:
[1] = target: T1, Peroxisome proliferator-activated receptor gamma (Homo sapiens, UniProt P37231); experiment: Activity at human PPARgamma receptor by cell based transactivation assay
T1 sequence (P37231 whole entry): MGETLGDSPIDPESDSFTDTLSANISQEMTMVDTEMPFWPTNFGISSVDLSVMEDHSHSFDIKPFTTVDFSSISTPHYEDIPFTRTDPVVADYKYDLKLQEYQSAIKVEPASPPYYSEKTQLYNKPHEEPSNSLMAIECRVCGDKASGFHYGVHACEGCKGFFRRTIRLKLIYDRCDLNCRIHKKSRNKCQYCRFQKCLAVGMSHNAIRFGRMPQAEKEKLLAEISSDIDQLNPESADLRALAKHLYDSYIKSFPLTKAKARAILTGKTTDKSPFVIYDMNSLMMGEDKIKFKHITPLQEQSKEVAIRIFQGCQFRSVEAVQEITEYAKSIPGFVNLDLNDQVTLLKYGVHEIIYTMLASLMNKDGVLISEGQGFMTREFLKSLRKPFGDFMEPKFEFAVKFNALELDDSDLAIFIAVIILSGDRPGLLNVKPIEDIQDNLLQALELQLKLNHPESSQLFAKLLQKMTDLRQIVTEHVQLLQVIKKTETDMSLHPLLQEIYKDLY

[2] = target: T2, Peroxisome proliferator-activated receptor delta (Homo sapiens, UniProt Q03181); experiment: Agonist activity at human PPARdelta receptor by cell based transactivation assay; format: functional
T2 sequence (Q03181 whole entry): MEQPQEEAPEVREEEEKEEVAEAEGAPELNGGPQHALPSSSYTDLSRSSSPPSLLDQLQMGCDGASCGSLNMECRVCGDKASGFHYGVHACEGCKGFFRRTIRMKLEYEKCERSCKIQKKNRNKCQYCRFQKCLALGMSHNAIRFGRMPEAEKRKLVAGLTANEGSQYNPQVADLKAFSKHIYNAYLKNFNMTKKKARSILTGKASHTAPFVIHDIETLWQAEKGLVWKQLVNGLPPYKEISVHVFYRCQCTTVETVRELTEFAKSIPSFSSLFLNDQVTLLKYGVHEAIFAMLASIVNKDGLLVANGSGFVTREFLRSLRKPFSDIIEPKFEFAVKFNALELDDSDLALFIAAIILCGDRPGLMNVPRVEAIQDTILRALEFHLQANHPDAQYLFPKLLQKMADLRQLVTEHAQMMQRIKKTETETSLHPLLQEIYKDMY

[3] = target: T3, Peroxisome proliferator-activated receptor alpha (Homo sapiens, UniProt Q07869); experiment: Activity at human PPARalpha receptor by cell based transactivation assay
T3 sequence (Q07869 whole entry): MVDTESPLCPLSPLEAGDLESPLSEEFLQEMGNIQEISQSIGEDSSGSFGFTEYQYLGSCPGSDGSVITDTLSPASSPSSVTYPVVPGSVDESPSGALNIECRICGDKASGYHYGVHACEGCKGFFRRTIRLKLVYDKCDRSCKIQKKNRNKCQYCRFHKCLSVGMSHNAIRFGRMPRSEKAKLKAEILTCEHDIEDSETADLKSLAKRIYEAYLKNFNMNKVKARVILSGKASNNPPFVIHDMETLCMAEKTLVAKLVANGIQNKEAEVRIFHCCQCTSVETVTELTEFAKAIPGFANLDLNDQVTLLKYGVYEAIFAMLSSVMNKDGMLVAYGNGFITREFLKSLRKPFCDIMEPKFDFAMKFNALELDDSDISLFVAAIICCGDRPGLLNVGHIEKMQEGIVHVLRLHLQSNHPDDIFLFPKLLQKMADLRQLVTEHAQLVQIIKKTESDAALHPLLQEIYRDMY

[4] = Half life in rat; format: ADME, organism-based; details: in vivo
[5] = AUC in rat; format: ADME, organism-based; details: plasma
[6] = Cmax in rat; format: ADME, organism-based; details: in vivo
[7] = Tmax in rat; format: ADME, organism-based; details: in vivo
[8] = Oral bioavailability in rat; format: ADME, organism-based; details: in vivo

**Q.** Which results are given for `CCOC(COc1ccc(C(F)(F)F)cc1)CSc1ccc(OCC(=O)O)c(C)c1` (stereo not given)?
**A.** EC50 [1]: > 1000 nM; EC50 [2]: 3.4 nM; EC50 [3]: > 1000 nM

**Q.** What does the source list for `CCC(COc1ccc(C(F)(F)F)cc1)CSc1ccc(OCC(=O)O)c(C)c1` (stereo not given)?
**A.** EC50 [1]: > 1000 nM; EC50 [2]: 0.06 nM; EC50 [3]: > 1000 nM

**Q.** With `CCO[C@H](COc1ccc(C(F)(F)F)cc1)CSc1ccc(OCC(=O)O)c(C)c1` as the compound, how does the EC50 [1] read?
**A.** Its EC50 is > 1000 nM.

**Q.** What about the EC50 [2] of the same compound?
**A.** The EC50 was 1.9 nM.

**Q.** What about the EC50 [3] of the same compound?
**A.** The EC50 was > 1000 nM.

**Q.** Which results are given for `CCOC(CCc1ccc(C(F)(F)F)cc1)CSc1ccc(OCC(=O)O)c(C)c1` (stereo not given)?
**A.** EC50 [1]: > 1000 nM; EC50 [3]: > 1000 nM

**Q.** For `CCOC(COc1ccc(C(F)(F)F)cc1)COc1ccc(OCC(=O)O)c(C)c1` (stereo not given), which EC50 [1] is on record?
**A.** The EC50 was > 1000 nM.

**Q.** And the EC50 [3]?
**A.** The EC50 was > 1000 nM.

**Q.** With `CCCCOC(COc1ccc(C(F)(F)F)cc1)CSc1ccc(OCC(=O)O)c(C)c1` (stereo not given) as the compound, how does the EC50 [1] read?
**A.** The EC50 was > 1000 nM.

**Q.** And the EC50 [2]?
**A.** The EC50 was 7 nM.

**Q.** What about the EC50 [3] of the same compound?
**A.** Its EC50 is > 1000 nM.

**Q.** With `C=CCOC(COc1ccc(C(F)(F)F)cc1)CSc1ccc(OCC(=O)O)c(C)c1` (stereo not given) as the compound, how does the EC50 [1] read?
**A.** Its EC50 is > 1000 nM.

**Q.** What about the EC50 [2] of the same compound?
**A.** Its EC50 is 3.9 nM.

**Q.** And the EC50 [3]?
**A.** The EC50 was > 1000 nM.

**Q.** What does the source list for `CCO[C@H](COc1ccc(C(F)(F)F)cc1)C[S+]([O-])c1ccc(OCC(=O)O)c(C)c1` (stereo not given in full)?
**A.** EC50 [1]: > 1000 nM; EC50 [2]: > 3000 nM; EC50 [3]: > 1000 nM

**Q.** For `COC(COc1ccc(C(F)(F)F)cc1)CSc1ccc(OCC(=O)O)c(C)c1` (stereo not given), which EC50 [1] is on record?
**A.** The EC50 was > 1000 nM.

**Q.** What about the EC50 [2] of the same compound?
**A.** Its EC50 is 18.8 nM.

**Q.** What about the EC50 [3] of the same compound?
**A.** The EC50 was > 1000 nM.

**Q.** With `Cc1cc(SCC(COc2ccc(C(F)(F)F)cc2)OCc2ccccc2)ccc1OCC(=O)O` (stereo not given) as the compound, how does the EC50 [1] read?
**A.** Its EC50 is > 1000 nM.

**Q.** What about the EC50 [3] of the same compound?
**A.** Its EC50 is > 1000 nM.

**Q.** With `COCO[C@H](COc1ccc(C(F)(F)F)cc1)CSc1ccc(OCC(=O)O)c(C)c1` as the compound, how does the EC50 [1] read?
**A.** Its EC50 is > 1000 nM.

**Q.** What about the EC50 [3] of the same compound?
**A.** Its EC50 is > 1000 nM.

**Q.** What does the source list for `COCO[C@@H](COc1ccc(C(F)(F)F)cc1)CSc1ccc(OCC(=O)O)c(C)c1`?
**A.** EC50 [1]: > 1000 nM; EC50 [2]: 70 nM; EC50 [3]: > 1000 nM

**Q.** For `CCCC(=O)c1ccc(OC(COc2ccc(C(F)(F)F)cc2)CSc2ccc(OCC(=O)O)c(C)c2)cc1` (stereo not given), which EC50 [1] is on record?
**A.** The EC50 was > 1000 nM.

**Q.** What about the EC50 [3] of the same compound?
**A.** Its EC50 is > 1000 nM.

**Q.** For `CCOCC(COc1ccc(C(F)(F)F)cc1)CSc1ccc(OCC(=O)O)c(C)c1` (stereo not given), which EC50 [1] is on record?
**A.** Its EC50 is > 1000 nM.

**Q.** And the EC50 [3]?
**A.** Its EC50 is > 1000 nM.

**Q.** Which results are given for `Cc1cc(SCC(COc2ccc(C(F)(F)F)cc2)COc2ccc(C(F)(F)F)cc2)ccc1OCC(=O)O`?
**A.** EC50 [1]: > 1000 nM; EC50 [3]: > 1000 nM

**Q.** With `CCO[C@@H](COc1ccc(C(F)(F)F)cc1)CSc1ccc(OCC(=O)O)c(C)c1` as the compound, how does the EC50 [1] read?
**A.** Its EC50 is > 1000 nM.

**Q.** And the EC50 [2]?
**A.** Its EC50 is 25 nM.

**Q.** What about the EC50 [3] of the same compound?
**A.** Its EC50 is > 1000 nM.

**Q.** Which EC50 [1] does the source give for `CCCOC(COc1ccc(C(F)(F)F)cc1)CSc1ccc(OCC(=O)O)c(C)c1` (stereo not given) here?
**A.** Its EC50 is > 1000 nM.

**Q.** What about the EC50 [3] of the same compound?
**A.** Its EC50 is > 1000 nM.

**Q.** With `Cc1cc(SCC(C)COc2ccc(C(F)(F)F)cc2)ccc1OCC(=O)O` (stereo not given) as the compound, how does the EC50 [1] read?
**A.** The EC50 was > 1000 nM.

**Q.** What about the EC50 [2] of the same compound?
**A.** The EC50 was 7.4 nM.

**Q.** What about the EC50 [3] of the same compound?
**A.** The EC50 was > 1000 nM.

**Q.** Which half-life [4] does the source give for `CC[C@H](COc1ccc(C(F)(F)F)cc1)CSc1ccc(OCC(=O)O)c(C)c1` here?
**A.** The half-life was 8.2 h.

**Q.** And the EC50 [1]?
**A.** Its EC50 is > 1000 nM.

**Q.** What about the AUC [5] of the same compound?
**A.** Its AUC is 13600 ng·h/mL.

**Q.** What about the EC50 [2] of the same compound?
**A.** Its EC50 is 0.03 nM.

**Q.** And the Cmax [6]?
**A.** Its Cmax is 8870 ng/mL.

**Q.** What about the Tmax [7] of the same compound?
**A.** Its Tmax is 0.5 h.

**Q.** And the EC50 [3]?
**A.** Its EC50 is > 1000 nM.

**Q.** And the bioavailability [8]?
**A.** Its bioavailability is 84%.

**Q.** What does the source list for `CSCOC(CCc1ccc(C(F)(F)F)cc1)CSc1ccc(OCC(=O)O)c(C)c1` (stereo not given)?
**A.** EC50 [1]: > 1000 nM; EC50 [2]: 15.2 nM; EC50 [3]: > 1000 nM

**Q.** What does the source list for `COCOC(COc1ccc(C(F)(F)F)cc1)CSc1ccc(OCC(=O)O)c(C)c1` (stereo not given)?
**A.** EC50 [1]: > 1000 nM; EC50 [3]: > 1000 nM

**Q.** With `Cc1cc(SCC(COc2ccc(C(F)(F)F)cc2)OCC(=O)O)ccc1OCC(=O)O` (stereo not given) as the compound, how does the EC50 [1] read?
**A.** The EC50 was > 1000 nM.

**Q.** And the EC50 [3]?
**A.** The EC50 was > 1000 nM.

**Q.** For `COc1ccc(OC(COc2ccc(C(F)(F)F)cc2)CSc2ccc(OCC(=O)O)c(C)c2)cc1` (stereo not given), which EC50 [1] is on record?
**A.** Its EC50 is > 1000 nM.

**Q.** And the EC50 [3]?
**A.** Its EC50 is > 1000 nM.

**Q.** With `Cc1cc(SCC(O)COc2ccc(C(F)(F)F)cc2)ccc1OCC(=O)O` (stereo not given) as the compound, how does the EC50 [1] read?
**A.** Its EC50 is > 1000 nM.

**Q.** What about the EC50 [3] of the same compound?
**A.** Its EC50 is > 1000 nM.
